Assay results: ChEMBL document CHEMBL1201862, “PubChem BioAssay data set” (2004)
Activity calls are given as the source filed them.

Experiments:
[1] = target: Mothers against decapentaplegic homolog 3 (Homo sapiens, UniProt P84022); assay: blockers of Smad3 complex formation in lysate – cell lysate, secondary confirmation, chemiluminescent ELISA, HEK293 lysate, dose response (AID 1058); assay type: functional
[2] = test system: Streptococcus; assay: Luminescence Microorganism-Based Dose Response Follow up to Identify Compounds Cytotoxic to Streptococcus. [Related pubchem assays: 1677 (Project Summary), 1915, 1914, 1902 (Retest at Dose), 1900 (Counter Screen), 1662 (Primary HTS)]; assay type: functional, organism-based
[3] = test system: HEK293; assay: Fluorescence-based counterscreen for potentiators or agonists of NPY-Y1: cell-based high-throughput dose response assay for inhibitors of cyclic nucleotide gated ion channel (CNGC) activity. In this assay, the parental HEK293 cell line transfected with a cyclic-nucleotide gated ion channel (CNGC)-based cAMP sensor is used to measure inhibition of isoproterenol-induced CNGC …; assay type: functional; conditions: Homo sapiens
[4] = target: T1, Neuropeptide Y receptor type 2 (Homo sapiens, UniProt P49146); assay: Fluorescence-based counterscreen for agonists of NPY-Y1: cell-based high-throughput dose response assay for agonists of NPY-Y2.; assay type: functional
T1 sequence (P49146 whole entry): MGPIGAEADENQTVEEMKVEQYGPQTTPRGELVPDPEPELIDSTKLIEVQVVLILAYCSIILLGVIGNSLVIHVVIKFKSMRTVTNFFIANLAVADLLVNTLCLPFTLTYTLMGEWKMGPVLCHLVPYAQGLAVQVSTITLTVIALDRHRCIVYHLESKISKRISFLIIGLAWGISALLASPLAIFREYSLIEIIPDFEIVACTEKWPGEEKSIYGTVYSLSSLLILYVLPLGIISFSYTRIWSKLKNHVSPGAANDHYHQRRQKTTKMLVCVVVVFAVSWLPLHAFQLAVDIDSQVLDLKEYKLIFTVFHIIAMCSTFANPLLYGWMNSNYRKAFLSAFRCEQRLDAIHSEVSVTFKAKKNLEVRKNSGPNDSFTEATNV

[5] = target: T2, Neuropeptide Y receptor type 1 (Homo sapiens, UniProt P25929); assay: Fluorescence-based dose response cell-based high-throughput screening assay for agonists of NPY-Y1. [Related pubchem assays: 1697 (Screening assay (NPY-Y1 agonists).), 1359 (Screening assay (NPY-Y2 potentiators or agonists).), 1304 (Screening assay (NPY-Y1 potentiators or agonists).), 1704 (Screening assay (CNGC inhibitors).), 1791 (Summary AID.)]; assay type: functional
T2 sequence (P25929 whole entry): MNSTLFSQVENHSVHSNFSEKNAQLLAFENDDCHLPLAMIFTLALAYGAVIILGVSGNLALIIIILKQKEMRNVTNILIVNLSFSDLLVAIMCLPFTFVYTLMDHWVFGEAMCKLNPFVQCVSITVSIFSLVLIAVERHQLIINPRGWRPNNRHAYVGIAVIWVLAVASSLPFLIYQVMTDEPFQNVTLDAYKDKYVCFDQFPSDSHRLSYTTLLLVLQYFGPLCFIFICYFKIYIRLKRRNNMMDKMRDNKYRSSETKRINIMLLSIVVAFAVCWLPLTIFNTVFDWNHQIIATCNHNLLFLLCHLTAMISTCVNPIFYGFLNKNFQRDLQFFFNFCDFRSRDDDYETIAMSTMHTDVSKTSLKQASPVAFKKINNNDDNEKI

[6] = target: Intestinal-type alkaline phosphatase (Homo sapiens, UniProt P09923); assay: inhibition of human intestinal alkaline phosphatase – biochemical, dose response (AID 488876); assay type: functional
Sequence of Intestinal-type alkaline phosphatase (Homo sapiens, UniProt P09923) (P09923 whole entry): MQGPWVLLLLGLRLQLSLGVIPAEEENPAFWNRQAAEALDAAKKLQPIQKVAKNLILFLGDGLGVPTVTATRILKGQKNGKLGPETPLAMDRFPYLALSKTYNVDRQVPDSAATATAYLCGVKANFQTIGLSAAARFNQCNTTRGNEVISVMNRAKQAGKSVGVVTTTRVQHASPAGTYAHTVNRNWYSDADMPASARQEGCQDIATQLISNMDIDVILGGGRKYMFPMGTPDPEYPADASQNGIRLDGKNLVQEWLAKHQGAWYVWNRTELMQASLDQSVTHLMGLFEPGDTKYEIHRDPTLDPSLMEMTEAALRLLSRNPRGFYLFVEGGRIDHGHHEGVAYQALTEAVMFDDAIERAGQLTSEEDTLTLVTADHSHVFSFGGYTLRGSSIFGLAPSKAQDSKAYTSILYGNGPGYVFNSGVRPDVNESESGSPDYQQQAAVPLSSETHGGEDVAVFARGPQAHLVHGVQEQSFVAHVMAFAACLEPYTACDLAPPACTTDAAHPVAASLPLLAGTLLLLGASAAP

[7] = target: Cysteine protease ATG4B (Homo sapiens, UniProt Q9Y4P1); assay type: functional;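 also: Fluorescence-based dose-response confirmation assay measuring inhibition of ATG4B activity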
Sequence of Cysteine protease ATG4B (Q9Y4P1 whole entry): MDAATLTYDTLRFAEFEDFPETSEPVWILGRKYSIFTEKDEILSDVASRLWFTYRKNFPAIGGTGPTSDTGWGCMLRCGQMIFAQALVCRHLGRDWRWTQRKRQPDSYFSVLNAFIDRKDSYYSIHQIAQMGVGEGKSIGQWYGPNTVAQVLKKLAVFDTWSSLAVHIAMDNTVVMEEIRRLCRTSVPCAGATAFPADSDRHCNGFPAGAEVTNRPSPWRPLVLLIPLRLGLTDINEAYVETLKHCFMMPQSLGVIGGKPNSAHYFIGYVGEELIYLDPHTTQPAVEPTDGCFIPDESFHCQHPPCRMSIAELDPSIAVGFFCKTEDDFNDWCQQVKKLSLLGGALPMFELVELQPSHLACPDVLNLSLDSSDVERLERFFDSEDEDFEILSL

[8] = target: Phospholipase A2 (Homo sapiens, UniProt P04054); assay type: functional;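 also: confirmatory dose-response counterscreen on phospholipase A2, testing hits that came from an ultra-high-throughput screen for ATG4B inhibitors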
Sequence of Phospholipase A2 (P04054 whole entry): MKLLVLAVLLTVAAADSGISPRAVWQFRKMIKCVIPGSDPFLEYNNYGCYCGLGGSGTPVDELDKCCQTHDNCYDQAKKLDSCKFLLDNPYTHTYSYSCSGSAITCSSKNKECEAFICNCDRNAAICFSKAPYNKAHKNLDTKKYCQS

[9] = target: Intestinal-type alkaline phosphatase (Mus musculus, UniProt P24822); assay: PubChem AID 488785; assay type: functional
Sequence of Intestinal-type alkaline phosphatase (Mus musculus, UniProt P24822) (P24822 whole entry): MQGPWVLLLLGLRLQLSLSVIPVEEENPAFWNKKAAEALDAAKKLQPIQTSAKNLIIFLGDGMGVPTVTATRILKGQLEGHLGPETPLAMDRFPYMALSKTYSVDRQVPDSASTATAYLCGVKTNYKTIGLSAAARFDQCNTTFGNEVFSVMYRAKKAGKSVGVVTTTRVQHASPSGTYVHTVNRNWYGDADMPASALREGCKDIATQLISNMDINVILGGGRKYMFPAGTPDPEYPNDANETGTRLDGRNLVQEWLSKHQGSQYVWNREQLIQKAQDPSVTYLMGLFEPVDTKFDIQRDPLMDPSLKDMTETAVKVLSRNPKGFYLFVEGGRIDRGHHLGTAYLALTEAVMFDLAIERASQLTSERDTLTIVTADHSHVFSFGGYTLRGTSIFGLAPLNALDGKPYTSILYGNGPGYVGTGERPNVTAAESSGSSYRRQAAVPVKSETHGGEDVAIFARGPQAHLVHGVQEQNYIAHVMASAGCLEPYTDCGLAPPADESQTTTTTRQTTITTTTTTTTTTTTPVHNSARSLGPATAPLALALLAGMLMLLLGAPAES

[10] = target: T3, Alkaline phosphatase, tissue-nonspecific isozyme (Homo sapiens, UniProt P05186)
T3 sequence (P05186 whole entry): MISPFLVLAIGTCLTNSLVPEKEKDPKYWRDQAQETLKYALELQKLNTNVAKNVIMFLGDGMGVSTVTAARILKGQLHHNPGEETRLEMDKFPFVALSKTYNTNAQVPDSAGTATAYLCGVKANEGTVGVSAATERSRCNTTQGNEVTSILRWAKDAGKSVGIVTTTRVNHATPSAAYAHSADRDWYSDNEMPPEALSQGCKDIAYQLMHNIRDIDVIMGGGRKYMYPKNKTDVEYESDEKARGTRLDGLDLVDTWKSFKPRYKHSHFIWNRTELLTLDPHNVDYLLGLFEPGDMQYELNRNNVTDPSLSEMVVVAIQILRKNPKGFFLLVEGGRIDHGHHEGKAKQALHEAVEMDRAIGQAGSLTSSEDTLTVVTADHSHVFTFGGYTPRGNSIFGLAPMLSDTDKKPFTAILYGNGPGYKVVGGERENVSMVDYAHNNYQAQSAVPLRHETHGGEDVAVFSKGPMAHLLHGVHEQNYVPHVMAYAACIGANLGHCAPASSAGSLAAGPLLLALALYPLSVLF

[11] = target: T4, Short transient receptor potential channel 4 (Mus musculus, UniProt Q9QUQ5); assay: block of DAMGO-driven TRPC4 calcium entry – cell-based, HEK293 TRPC4/mu-opioid, Fluo-4 calcium, dose response (AID 434942); assay type: functional;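 also: potency of inhibitors blocking the TRPC4 calcium response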
T4 sequence (Q9QUQ5 whole entry): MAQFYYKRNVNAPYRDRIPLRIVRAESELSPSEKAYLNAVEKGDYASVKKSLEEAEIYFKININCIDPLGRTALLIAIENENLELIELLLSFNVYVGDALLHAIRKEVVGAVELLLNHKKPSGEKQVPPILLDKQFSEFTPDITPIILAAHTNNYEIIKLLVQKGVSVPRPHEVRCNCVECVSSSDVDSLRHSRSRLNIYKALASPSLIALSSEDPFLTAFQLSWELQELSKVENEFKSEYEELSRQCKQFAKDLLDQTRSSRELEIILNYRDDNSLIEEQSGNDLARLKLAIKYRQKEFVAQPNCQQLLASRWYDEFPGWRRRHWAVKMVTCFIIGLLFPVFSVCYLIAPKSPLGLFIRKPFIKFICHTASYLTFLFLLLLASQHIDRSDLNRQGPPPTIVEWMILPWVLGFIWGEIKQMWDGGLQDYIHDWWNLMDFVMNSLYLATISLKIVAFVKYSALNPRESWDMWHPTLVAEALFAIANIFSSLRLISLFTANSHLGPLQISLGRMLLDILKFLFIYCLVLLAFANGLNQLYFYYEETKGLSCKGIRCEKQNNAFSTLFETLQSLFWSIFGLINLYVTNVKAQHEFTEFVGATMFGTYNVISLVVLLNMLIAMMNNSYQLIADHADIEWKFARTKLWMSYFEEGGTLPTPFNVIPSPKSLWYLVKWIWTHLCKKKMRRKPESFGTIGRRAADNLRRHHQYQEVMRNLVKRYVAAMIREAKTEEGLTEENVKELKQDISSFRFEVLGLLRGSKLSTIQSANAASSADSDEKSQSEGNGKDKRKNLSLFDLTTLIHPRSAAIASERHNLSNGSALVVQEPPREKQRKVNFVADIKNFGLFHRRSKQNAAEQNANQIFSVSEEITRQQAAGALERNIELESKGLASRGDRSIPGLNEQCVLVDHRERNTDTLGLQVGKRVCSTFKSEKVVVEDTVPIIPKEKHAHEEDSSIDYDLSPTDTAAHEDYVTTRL

[12] = target: T3, Alkaline phosphatase, tissue-nonspecific isozyme; assay: TNAP enzyme inhibition by screening hits, dose response, selectivity assay for mouse IAP inhibitor project, biochemical, human TNAP, uHTS hits (AID 488906); assay type: functional
[13] = test system: H4; assay: Luminescence Cell-Based Dose Response HTS to Identify Activators of 5'UTR Stem-Loop Driven Prion Protein mRNA Translation in H4 Neuroglioblastoma Cells. [Related pubchem assays: 1829 (Project Summary), 1814 (Primary HTS)]; assay type: functional; conditions: Homo sapiens
[14] = target: T5, Apoptotic protease-activating factor 1 (Homo sapiens, UniProt O14727); assay type: functional
T5 sequence (O14727 whole entry): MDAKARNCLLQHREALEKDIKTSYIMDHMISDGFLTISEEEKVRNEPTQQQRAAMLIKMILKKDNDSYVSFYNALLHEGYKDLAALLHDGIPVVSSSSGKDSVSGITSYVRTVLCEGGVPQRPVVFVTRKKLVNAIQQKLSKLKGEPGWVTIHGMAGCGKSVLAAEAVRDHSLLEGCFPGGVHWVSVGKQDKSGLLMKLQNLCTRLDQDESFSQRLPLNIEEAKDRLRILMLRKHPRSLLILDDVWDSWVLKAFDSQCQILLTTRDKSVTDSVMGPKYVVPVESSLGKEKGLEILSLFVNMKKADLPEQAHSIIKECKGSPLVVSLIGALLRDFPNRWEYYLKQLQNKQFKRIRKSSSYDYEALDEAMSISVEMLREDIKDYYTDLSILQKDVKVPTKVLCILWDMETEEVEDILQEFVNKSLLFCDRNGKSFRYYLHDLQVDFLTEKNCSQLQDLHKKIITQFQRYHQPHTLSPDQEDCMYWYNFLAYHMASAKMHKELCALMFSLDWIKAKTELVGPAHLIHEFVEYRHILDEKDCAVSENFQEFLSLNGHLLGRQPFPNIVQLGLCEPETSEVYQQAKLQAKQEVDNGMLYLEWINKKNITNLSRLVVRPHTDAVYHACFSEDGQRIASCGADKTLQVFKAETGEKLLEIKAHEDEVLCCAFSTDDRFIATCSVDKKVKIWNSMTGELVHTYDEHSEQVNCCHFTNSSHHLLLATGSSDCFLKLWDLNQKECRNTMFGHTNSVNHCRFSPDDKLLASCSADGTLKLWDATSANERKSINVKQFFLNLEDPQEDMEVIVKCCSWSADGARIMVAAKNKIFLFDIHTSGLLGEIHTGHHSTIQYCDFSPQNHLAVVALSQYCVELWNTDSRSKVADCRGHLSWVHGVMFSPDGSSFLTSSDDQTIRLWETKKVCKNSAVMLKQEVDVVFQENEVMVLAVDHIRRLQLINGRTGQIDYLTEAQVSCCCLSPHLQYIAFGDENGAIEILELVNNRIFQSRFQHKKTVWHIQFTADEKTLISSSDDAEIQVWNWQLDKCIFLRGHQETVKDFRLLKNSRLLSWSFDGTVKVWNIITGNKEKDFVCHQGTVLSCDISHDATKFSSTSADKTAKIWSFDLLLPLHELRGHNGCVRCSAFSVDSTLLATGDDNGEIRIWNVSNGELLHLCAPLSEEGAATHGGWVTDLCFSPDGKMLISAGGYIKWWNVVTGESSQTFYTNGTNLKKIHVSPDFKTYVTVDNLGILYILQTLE

[15] = Luminescence Cell-Based Dose Confirmation HTS to Identify Activators of 5'UTR Stem-Loop Driven Alpha-Synuclein mRNA Translation in H4 Neuroglioblastoma Cells. [Related pubchem assays: 1829 (Project Summary), 1814 (Primary HTS)]; assay type: functional
[16] = target: Serine/threonine-protein phosphatase PP1-alpha catalytic subunit (Homo sapiens, UniProt P62136); assay: inhibition of protein phosphatase 1 activity – biochemical, fluorescence, dose response (AID 2403);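 also: phosphatase turnover of OMFP into fluorescent 3-O-methylfluorescein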
Sequence of Serine/threonine-protein phosphatase PP1-alpha catalytic subunit (P62136 whole entry): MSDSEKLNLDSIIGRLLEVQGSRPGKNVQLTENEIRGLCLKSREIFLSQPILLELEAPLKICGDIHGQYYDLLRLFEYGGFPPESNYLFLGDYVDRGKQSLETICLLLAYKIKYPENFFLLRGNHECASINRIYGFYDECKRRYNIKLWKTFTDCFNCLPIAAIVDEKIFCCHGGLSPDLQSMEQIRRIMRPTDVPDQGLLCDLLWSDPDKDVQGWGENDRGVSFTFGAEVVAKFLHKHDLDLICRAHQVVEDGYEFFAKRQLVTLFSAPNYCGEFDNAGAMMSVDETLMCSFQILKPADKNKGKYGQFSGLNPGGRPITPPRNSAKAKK

[17] = Luminescence Cell-Based Dose Response HTS to Identify Activators of Luciferase Translation or Activity in H4 […] Cells. [Related pubchem assays: 1829 (Project Summary), 1814 (Primary HTS)]; assay type: functional
[18] = target: T6, Mannose-6-phosphate isomerase (Homo sapiens, UniProt P34949); assay: MPI inhibition at elevated mannose 6-phosphate – biochemical, fluorescence intensity, high mannose 6-phosphate, primary screen (AID 1220)
T6 sequence (P34949 whole entry): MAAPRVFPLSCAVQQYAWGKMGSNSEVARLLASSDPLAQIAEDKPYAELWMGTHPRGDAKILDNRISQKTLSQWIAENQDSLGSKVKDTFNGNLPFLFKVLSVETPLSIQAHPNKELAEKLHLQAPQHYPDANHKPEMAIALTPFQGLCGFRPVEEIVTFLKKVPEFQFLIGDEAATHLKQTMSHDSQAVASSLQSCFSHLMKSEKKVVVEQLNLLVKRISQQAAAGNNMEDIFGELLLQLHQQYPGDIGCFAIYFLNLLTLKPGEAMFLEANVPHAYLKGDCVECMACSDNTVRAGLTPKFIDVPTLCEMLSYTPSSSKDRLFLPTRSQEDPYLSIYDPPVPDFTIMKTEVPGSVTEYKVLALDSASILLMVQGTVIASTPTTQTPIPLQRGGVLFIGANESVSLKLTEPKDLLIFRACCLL

[19] = target: Serine/threonine-protein phosphatase (Homo sapiens, UniProt Q9BPW0); assay: Counterscreen for inhibitors of PP1: fluorescence-based biochemical high throughput dose response assay to identify inhibitors of Protein Phosphatase 5 (PP5). [Related pubchem assays: 2034 (Summary (PP5 inhibitors)), 1987 (PP5 inhibitors in singlate), 2235 (PP1 inhibitors in singlate)]
Sequence of Serine/threonine-protein phosphatase (Q9BPW0 whole entry): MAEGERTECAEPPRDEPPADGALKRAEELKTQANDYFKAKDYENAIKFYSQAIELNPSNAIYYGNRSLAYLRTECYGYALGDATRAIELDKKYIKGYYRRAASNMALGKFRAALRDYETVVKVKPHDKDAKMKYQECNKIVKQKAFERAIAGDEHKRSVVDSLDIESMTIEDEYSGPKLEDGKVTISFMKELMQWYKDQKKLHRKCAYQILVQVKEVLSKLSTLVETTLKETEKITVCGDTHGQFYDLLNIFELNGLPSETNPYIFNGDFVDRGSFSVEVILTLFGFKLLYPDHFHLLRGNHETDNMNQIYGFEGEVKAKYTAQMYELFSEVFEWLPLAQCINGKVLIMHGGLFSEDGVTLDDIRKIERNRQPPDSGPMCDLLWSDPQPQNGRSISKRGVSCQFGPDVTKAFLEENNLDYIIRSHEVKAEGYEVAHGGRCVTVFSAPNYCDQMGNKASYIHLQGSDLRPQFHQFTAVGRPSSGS

[20] = target: T7, Eukaryotic translation initiation factor 2-alpha kinase 3 (Homo sapiens, UniProt Q9NZJ5); assay: Counterscreen assay for PERK inhibitors: Dose response cell-based high throughput screening assay to measure inhibition of PERK at 6 hours. [Related pubchem assays: 1522, 1416 ]; assay type: functional
T7 sequence (Q9NZJ5 whole entry): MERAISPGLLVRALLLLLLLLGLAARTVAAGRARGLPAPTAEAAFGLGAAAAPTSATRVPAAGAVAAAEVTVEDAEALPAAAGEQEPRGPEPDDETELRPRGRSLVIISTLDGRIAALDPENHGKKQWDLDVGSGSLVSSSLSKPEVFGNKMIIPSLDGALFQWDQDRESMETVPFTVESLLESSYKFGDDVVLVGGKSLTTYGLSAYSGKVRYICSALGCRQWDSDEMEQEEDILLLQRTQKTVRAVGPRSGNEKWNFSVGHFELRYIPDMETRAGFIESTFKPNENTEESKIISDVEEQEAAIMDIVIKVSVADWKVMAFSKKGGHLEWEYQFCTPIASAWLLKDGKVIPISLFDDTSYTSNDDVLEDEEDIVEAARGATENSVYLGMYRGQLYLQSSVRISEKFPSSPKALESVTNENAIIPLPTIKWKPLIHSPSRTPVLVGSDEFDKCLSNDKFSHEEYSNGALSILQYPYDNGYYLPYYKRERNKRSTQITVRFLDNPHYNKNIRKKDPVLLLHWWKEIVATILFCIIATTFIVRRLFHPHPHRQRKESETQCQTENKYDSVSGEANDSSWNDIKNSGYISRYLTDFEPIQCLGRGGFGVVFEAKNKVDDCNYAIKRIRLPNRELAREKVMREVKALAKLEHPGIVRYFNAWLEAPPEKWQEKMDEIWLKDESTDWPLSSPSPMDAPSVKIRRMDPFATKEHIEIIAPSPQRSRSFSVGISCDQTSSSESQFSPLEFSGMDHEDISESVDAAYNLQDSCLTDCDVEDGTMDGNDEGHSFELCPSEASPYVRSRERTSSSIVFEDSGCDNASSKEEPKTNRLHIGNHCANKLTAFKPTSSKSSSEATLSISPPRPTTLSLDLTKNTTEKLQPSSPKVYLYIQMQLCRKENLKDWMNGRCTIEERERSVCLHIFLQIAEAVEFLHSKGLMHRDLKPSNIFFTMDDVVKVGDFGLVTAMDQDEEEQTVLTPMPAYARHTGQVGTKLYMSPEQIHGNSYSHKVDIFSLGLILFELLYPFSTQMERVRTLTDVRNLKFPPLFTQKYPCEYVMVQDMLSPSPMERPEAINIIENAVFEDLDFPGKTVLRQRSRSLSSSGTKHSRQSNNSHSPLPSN

[21] = target: T7, Eukaryotic translation initiation factor 2-alpha kinase 3; assay: Dose response cell-based high-throughput screening assay to measure PERK inhibition. [Related pubchem assays: 1416 ]; assay type: functional
[22] = target: Mitochondrial peptide methionine sulfoxide reductase (Bos taurus, UniProt P54149); assay type: functional;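 also: absorbance read-out, biochemical high-throughput dose-response screen for MsrA inhibitors, confirmatory; recombinant bovine MsrA coupled to E. coli TrxB with NADPH and selenocystamine; potency is for inhibitors of MsrA activity on DMSO substrate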
Sequence of Mitochondrial peptide methionine sulfoxide reductase (P54149 whole entry): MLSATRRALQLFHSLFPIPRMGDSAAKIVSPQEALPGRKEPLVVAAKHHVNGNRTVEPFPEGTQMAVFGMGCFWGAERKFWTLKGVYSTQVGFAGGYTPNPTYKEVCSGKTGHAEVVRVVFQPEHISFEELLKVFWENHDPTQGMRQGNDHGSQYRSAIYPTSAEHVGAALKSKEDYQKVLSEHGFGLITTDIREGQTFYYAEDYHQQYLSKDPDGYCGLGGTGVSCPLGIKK

Sequence of Mothers against decapentaplegic homolog 3 (P84022 whole entry): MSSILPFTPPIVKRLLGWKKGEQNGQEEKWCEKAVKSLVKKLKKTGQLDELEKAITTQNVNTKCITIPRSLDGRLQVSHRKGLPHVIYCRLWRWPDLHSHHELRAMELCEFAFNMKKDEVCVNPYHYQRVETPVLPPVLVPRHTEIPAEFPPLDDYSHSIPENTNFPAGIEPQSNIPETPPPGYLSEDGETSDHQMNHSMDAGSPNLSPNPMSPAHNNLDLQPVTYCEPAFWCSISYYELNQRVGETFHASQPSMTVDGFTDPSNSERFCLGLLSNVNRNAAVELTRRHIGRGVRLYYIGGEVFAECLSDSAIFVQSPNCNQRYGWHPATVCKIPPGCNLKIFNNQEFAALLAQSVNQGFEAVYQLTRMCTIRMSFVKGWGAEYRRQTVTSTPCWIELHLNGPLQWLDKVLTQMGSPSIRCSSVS

COc1ccc(C(c2cc3c(cc2O)OCO3)N2CCOCC2)c(OC)c1OC (configuration not stated)
IC50 [1]: 3.97 µM (not active)

O=C(c1ccc(Cl)cc1)n1c2ccccc2c2ccccc21
EC50 [2]: > 500 µM (not active)

CC(C)c1ccc2[nH]c(O)c(N=NC(=O)c3cccc(S(=O)(=O)Nc4cccc(Cl)c4)c3)c2c1
IC50 [3]: > 35.4 µM (not active) | EC50 [4]: > 35.4 µM (not active) | EC50 [5]: > 35.4 µM (not active)

Cc1ccc(CN2C3CCCC2CC(NC(=S)NCc2ccccc2)C3)cc1 (configuration not stated)
IC50 [6]: > 100 µM (inactive) | IC50 [7]: 15.6 µM (active) | IC50 [8]: 7.96 µM (active) | IC50 [9]: 5.23 µM (active) | EC50 [10]: 64.9 µM (not active) | EC50 [11]: 2.66 µM (active) | IC50 [12]: 91.3 µM (active)

N#Cc1c(N2CCCC(O)C2)nc(N)c2c(N)nc3c(c12)CC(=O)N3C12CC3CC(CC(C3)C1)C2 (configuration not stated)
EC50 [13]: > 120 µM (not active) | IC50 [14]: 73 µM (active) | EC50 [15]: 12.6 µM (active) | IC50 [16]: > 67 µM (not active) | EC50 [17]: 9.64 µM (active) | IC50 [18]: > 50 µM (not active) | IC50 [19]: 29.5 µM (not active)

NC(=S)N/N=C/c1ccc(/C=N/NC(N)=S)cc1
EC50 [20]: > 55.7 µM (not active) | EC50 [21]: > 55.7 µM (not active) | IC50 [22]: 155 µM (inactive)
